Measurements taken from article PMC3062192 (Bioorganic & medicinal chemistry letters, 2011).

Legend:
Cdk5/p25 = Cdk5/p25 (Homo sapiens, UniProt Q00535); experiment: Cdk5/p25 radiometric kinase inhibition assay; format: biochemical
[1] = system: phosphorylated tau at Serine 235 (Ptau235) in primary neurons; experiment: inhibition of tau phosphorylation; format: cell-based; conditions: rat primary neurons, 4 h at 37 °C, Ptau235 immunoblot

Cdk5/p25, sequence (Q00535 whole entry): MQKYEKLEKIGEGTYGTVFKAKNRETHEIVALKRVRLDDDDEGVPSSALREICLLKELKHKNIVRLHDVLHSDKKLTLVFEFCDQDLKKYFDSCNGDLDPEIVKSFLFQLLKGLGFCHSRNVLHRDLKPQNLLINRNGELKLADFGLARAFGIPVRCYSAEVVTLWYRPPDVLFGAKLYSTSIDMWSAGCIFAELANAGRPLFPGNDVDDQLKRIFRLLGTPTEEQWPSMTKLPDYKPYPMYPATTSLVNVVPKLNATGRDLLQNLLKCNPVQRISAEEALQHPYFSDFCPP
Cdk5/p25, sequence (Q15078 99-307 partner limits assumed): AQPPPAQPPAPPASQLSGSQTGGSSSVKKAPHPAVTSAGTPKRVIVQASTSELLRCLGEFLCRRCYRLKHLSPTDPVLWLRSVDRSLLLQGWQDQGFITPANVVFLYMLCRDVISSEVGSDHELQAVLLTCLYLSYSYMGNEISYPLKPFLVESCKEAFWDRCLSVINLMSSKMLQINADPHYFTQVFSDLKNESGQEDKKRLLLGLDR

Compound	binding ΔΔG (Cdk5/p25; calculated from the listed activities for the pair 26 and 28) [kcal/mol]	inhibition of tau phosphorylation (in words) [1]	Cdk5/p25 inhibitory activity (in words) (Cdk5/p25; radiometric assay)
Nc1nc(Nc2cccnc2)sc1C(=O)c1ccccc1F [Compound 26]	-2.6	dose-dependent inhibition of tau phosphorylation	
CNc1nc(Nc2cccnc2)sc1C(=O)c1ccccc1F [Compound 43]			abolished inhibitory activity
